Tested on: NCI-H226 complex tumor spheroids, viability
Test: Anticancer human tumor NCI-H226 cell line growth inhibition;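 note: spheroids exposed to compound for 7 days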;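 for viability, T/C: 100% = DMSO vehicle control viability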
Settings: for IC50: curve of first compound; for viability, T/C: stronger effect = lower value
Procedure, shortened: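 Single agents and combinations were tested on spheroids built from tumor cells plus HUVEC and hMSC, at half-log dilutions starting at or near clinical Cmax, else 10 microM; final DMSO 0.25% (v/v).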

[1] = second compound 1 µM, first compound 0.0316 µM
[2] = second compound 1 µM, first compound 0.1 µM
[3] = second compound 1 µM, first compound 0.316 µM
[4] = second compound 1 µM, first compound 1 µM
[5] = second compound 1 µM, first compound 3.16 µM
[6] = second compound 1 µM, first compound 10 µM
[7] = second compound 3.16 µM, first compound 0.0316 µM
[8] = second compound 3.16 µM, first compound 0.1 µM
[9] = second compound 3.16 µM, first compound 0.316 µM
[10] = second compound 3.16 µM, first compound 1 µM
[11] = second compound 3.16 µM, first compound 3.16 µM
[12] = second compound 3.16 µM, first compound 10 µM
[13] = second compound 10 µM, first compound 0.0316 µM
[14] = second compound 10 µM, first compound 0.1 µM
[15] = second compound 10 µM, first compound 0.316 µM
[16] = second compound 10 µM, first compound 1 µM
[17] = second compound 10 µM, first compound 3.16 µM
[18] = second compound 10 µM, first compound 10 µM
[19] = second compound 31.6 µM, first compound 0.0316 µM
[20] = second compound 31.6 µM, first compound 0.1 µM
[21] = second compound 31.6 µM, first compound 0.316 µM
[22] = second compound 31.6 µM, first compound 1 µM
[23] = second compound 31.6 µM, first compound 3.16 µM
[24] = second compound 31.6 µM, first compound 10 µM
[25] = second compound 100 µM, first compound 0.0316 µM
[26] = second compound 100 µM, first compound 0.1 µM
[27] = second compound 100 µM, first compound 0.316 µM
[28] = second compound 100 µM, first compound 1 µM
[29] = second compound 100 µM, first compound 3.16 µM
[30] = second compound 100 µM, first compound 10 µM

| SMILES | IC50 (second compound 1 µM) [µM] | IC50 (second compound 3.16 µM) [µM] | IC50 (second compound 10 µM) [µM] | IC50 (second compound 31.6 µM) [µM] | IC50 (second compound 100 µM) [µM] | viability, T/C [1] [%] | viability, T/C [2] [%] | viability, T/C [3] [%] | viability, T/C [4] [%] | viability, T/C [5] [%] | viability, T/C [6] [%] | viability, T/C [7] [%] | viability, T/C [8] [%] | viability, T/C [9] [%] | viability, T/C [10] [%] | viability, T/C [11] [%] | viability, T/C [12] [%] | viability, T/C [13] [%] | viability, T/C [14] [%] | viability, T/C [15] [%] | other results |
| --- | --- | --- | --- | --- | --- | --- | --- | --- | --- | --- | --- | --- | --- | --- | --- | --- | --- | --- | --- | --- | --- |
| CC1COCCN1c1cc(-c2ccnn2C)c2ccnc(-c3ccn[nH]3)c2n1 (stereo not given) + Cn1nnc2c(C(N)=O)ncn2c1=O | 1.89 | 1.75 | 2.01 | 2.02 | 2.41 | 88.1 | 86.8 | 79.3 | 59.6 | 42.4 | 35.9 | 98.8 | 86.1 | 78.4 | 50.8 | 47.8 | 34.9 | 105 | 88.6 | 73 | viability, T/C [16]: 59.3%; viability, T/C [17]: 43.1%; viability, T/C [18]: 36.1%; viability, T/C [19]: 90.2%; viability, T/C [20]: 91.5%; viability, T/C [21]: 74.7%; viability, T/C [22]: 58.3%; viability, T/C [23]: 46.1%; viability, T/C [24]: 37.9%; viability, T/C [25]: 116%; viability, T/C [26]: 107%; viability, T/C [27]: 92.9%; viability, T/C [28]: 61.5%; viability, T/C [29]: 46.2%; viability, T/C [30]: 42.5% |
| COc1cc(C)[nH]c(=O)c1CN1CCc2c(Cl)cc(C(OC)C3COC3)c(Cl)c2C1=O (stereo not given) + Cn1nnc2c(C(N)=O)ncn2c1=O | > 10 | > 10 | > 10 | > 10 | > 10 | 133 | 131 | 130 | 133 | 129 | 132 | 117 | 138 | 124 | 121 | 136 | 108 | 132 | 128 | 125 | viability, T/C [16]: 136%; viability, T/C [17]: 128%; viability, T/C [18]: 127%; viability, T/C [19]: 124%; viability, T/C [20]: 144%; viability, T/C [21]: 132%; viability, T/C [22]: 125%; viability, T/C [23]: 135%; viability, T/C [24]: 145%; viability, T/C [25]: 118%; viability, T/C [26]: 132%; viability, T/C [27]: 136%; viability, T/C [28]: 146%; viability, T/C [29]: 137%; viability, T/C [30]: 150% |
| COc1ccc([C@@H](O)c2cc(-c3ncnc4cc(N5CCOCC5)ccc34)c(F)cc2Cl)nn1 + Cn1nnc2c(C(N)=O)ncn2c1=O | 4.71 | 2.97 | 3.43 | 3.69 | 4.53 | 94.3 | 100 | 89 | 66.8 | 60.8 | 37.5 | 95.2 | 101 | 92.2 | 67.9 | 52.1 | 38.1 | 86.9 | 89.4 | 90.4 | viability, T/C [16]: 73.8%; viability, T/C [17]: 52.1%; viability, T/C [18]: 34.4%; viability, T/C [19]: 98.5%; viability, T/C [20]: 91.8%; viability, T/C [21]: 91%; viability, T/C [22]: 67.5%; viability, T/C [23]: 54.2%; viability, T/C [24]: 36.7%; viability, T/C [25]: 111%; viability, T/C [26]: 107%; viability, T/C [27]: 95.8%; viability, T/C [28]: 75.9%; viability, T/C [29]: 56.1%; viability, T/C [30]: 38.1% |
| Cc1cc(C)c(CNC(=O)c2cc(-c3ccc(CN4CCOCC4)cc3)cc3c2cnn3C2CCCC2)c(=O)[nH]1 + Cn1nnc2c(C(N)=O)ncn2c1=O | > 10 | > 10 | > 10 | > 10 | > 10 | 113 | 125 | 106 | 115 | 131 | 102 | 125 | 135 | 113 | 113 | 97.4 | 119 | 128 | 136 | 122 | viability, T/C [16]: 109%; viability, T/C [17]: 111%; viability, T/C [18]: 125%; viability, T/C [19]: 123%; viability, T/C [20]: 108%; viability, T/C [21]: 116%; viability, T/C [22]: 109%; viability, T/C [23]: 103%; viability, T/C [24]: 144%; viability, T/C [25]: 108%; viability, T/C [26]: 114%; viability, T/C [27]: 122%; viability, T/C [28]: 130%; viability, T/C [29]: 110%; viability, T/C [30]: 132% |
| [2H]c1nc(C)nc([2H])c1-c1cc(NC[C@@H](C)c2cccc3c(C(=O)NC)ccnc23)ncn1 + Cn1nnc2c(C(N)=O)ncn2c1=O | > 10 | > 10 | > 10 | > 10 | > 10 | 115 | 107 | 118 | 112 | 114 | 121 | 114 | 114 | 113 | 101 | 123 | 122 | 112 | 122 | 115 | viability, T/C [16]: 110%; viability, T/C [17]: 113%; viability, T/C [18]: 115%; viability, T/C [19]: 103%; viability, T/C [20]: 102%; viability, T/C [21]: 119%; viability, T/C [22]: 120%; viability, T/C [23]: 123%; viability, T/C [24]: 116%; viability, T/C [25]: 141%; viability, T/C [26]: 129%; viability, T/C [27]: 112%; viability, T/C [28]: 116%; viability, T/C [29]: 117%; viability, T/C [30]: 121% |

— PubChem BioAssay AID1845210 (Molecular Pharmacology Branch, DTP, NCI, 2023)
